Assays:
[1] = test system: mouse model with induced nonalcoholic steatohepatitis; test: NAFLD activity score (HE histology) in mouse model with nonalcoholic steatohepatitis; type: in vivo, C57BL/6J mouse; details: administered alone, compound 1 100 mg/kg/day, compared to before treatment
Protocol: (§1) A six-weeks-old male C57BL/6J mouse was fed with a special feed of high fat, high fructose, and high cholesterol (Research Diet, D09100301) for at least 27 weeks, and thus was induced to develop nonalcoholic steatohepatitis. After that, compound 1 was administered alone or in combination so that a daily dose reached 100 mg/kg/day. As the DPPIV inhibitor, evogliptin at 200 mg/kg/day or sitagliptin at 150 mg/kg/day was administered alone or in combination. As the PPAR agonist, elafibranor was administered alone or in combination so as to reach 30 mg/kg/day. As a method of administration alone or in combination, the above-described compound 1, DPPIV inhibitor, and/or PPAR agonist were prepared as a drug-diet admixture and supplied for 8 to 12 weeks.
For a histological examination, liver tissues were isolated through biopsy and autopsy from the mouse model with induced nonalcoholic steatohepatitis prepared above before and after drug administration and were fixed in 10% formalin so as to prepare a paraffin block and obtain a 2 μm thick tissue section. After that, hematoxylin and eosin (HE) stain was performed by using an automatic stainer (Autostainer XL, Leica) in order to confirm an infiltration of inflammatory cells. A ratio of lipid droplets deposited in the stained liver tissues, a degree of infiltration of inflammatory cells and a degree of cell necrosis were expressed as NAFLD activity scores (NAS), and the results thereof are shown in FIGS. 2 and 3.

[2] = test system: mouse model with induced nonalcoholic steatohepatitis; test: Relative proportion of lipid droplets in liver tissues (image analysis of HE-stained tissue), NASH mice; type: in vivo, C57BL/6J mouse; details: for relative area of lipid droplets in liver tissues / ratio of fat (lipid droplets area) in liver tissues: compound 1 100 mg/kg/day, alone or in combination; for relative area of lipid droplets in liver tissues: evogliptin 200 mg/kg/day; for ratio of fat (lipid droplets area) in liver tissues: FIG. 5, elafibranor 30 mg/kg/day
Protocol: as §1
For quantitative comparison of fat accumulation in liver tissues, the HE-stained tissues were subjected to an image analysis to calculate a relative proportion of lipid droplets per unit area, thereby evaluating a medicinal efficacy of co-administration.

[3] = test system: mouse model with induced nonalcoholic steatohepatitis; test: Galectin-3 immunostaining in liver tissues, NASH mice; type: in vivo, C57BL/6J mouse; details: administered alone, compound 1 100 mg/kg/day
Protocol: as §1
To compare the degree of infiltration of inflammatory cells in liver tissues, an expression level of galectin-3, an indicator of increased expression in activated macrophages, was measured through immunostaining. After that, a ratio of the area stained by the galectin-3 antibody in the unit area was calculated through image analysis so as to evaluate the medicinal efficacy of ameliorating inflammation according to the co-administration.

[4] = test system: mouse model with induced nonalcoholic steatohepatitis; test: αSMA immunostaining in liver tissues, NASH mice; type: in vivo, C57BL/6J mouse; details: administered alone, compound 1 100 mg/kg/day
Protocol: as §1
To evaluate the effectiveness on fibrosis, an expression of a smooth muscle actin (αSMA) in a liver tissue section was measured through immunostaining so as to compare the ratio of activated stellate cells. After that, a ratio of the area stained by the αSMA antibody in the unit area was calculated through image analysis.

[5] = test system: mouse model with induced nonalcoholic steatohepatitis; test: Plasma inflammation and fibrosis-related proteins (ELISA), NASH mice; type: in vivo, C57BL/6J mouse; details: FIG. 10
Protocol: as §1
To evaluate an effect on concentration of inflammation (CCL2, CXCl10, CXCl2, IL2 and TNFα) and fibrosis-related protein (TIMP1) in plasma, a concentration of CCL2, CXCl10, CXCl2, IL2, TNFα (MSD, K15255D-1) and TIMP1 (R&D Systems, MTM100) proteins in the plasma obtained from the mouse model was quantified by using a commercially available ELISA kit.

[6] = test system: mouse model with induced nonalcoholic steatohepatitis; test: Blood AST and ALT, NASH mice; type: in vivo, C57BL/6J mouse; details: FIG. 11; compound 1 100 mg/kg/day, evogliptin 200 mg/kg/day, alone or in combination; combination compared to both drugs alone
Protocol: as §1
The mouse model with induced nonalcoholic steatohepatitis was subjected to autopsy, after which plasma was isolated therefrom, so as to quantify aspartate aminotransferase (AST) and alanine aminotransferase (ALT) by using an automatic blood analyzer (Konelab 20i).

[7] = test system: human monocyte cell line (THP-1); test: Inflammatory cytokine secretion during differentiation of human monocytes into macrophages (PMA, then LPS); type: cell-based; details: FIG. 12; THP-1, PMA 50 ng/ml 48 hours, LPS 0.5 ng/ml four hours; compound 1 alone
Protocol: A human monocyte cell line (THP-1, ATCC® TIB-202™) was treated with 50 ng/ml of phorbol 12-myristate 13-acetate (PMA) for 48 hours and differentiated into macrophages, while being treated with compound 1 in combination with elafibranor as a PPAR agonist, firsocostat as an ACC inhibitor, obeticholic acid as a FXR agonist or cenicriviroc as a CCR2/5 dual antagonist, then replaced with a serum-free medium, and then treated with lipopolysaccharides (LPS; 0.5 ng/ml) for four hours, after which […], tumor necrosis factor α (TNFα; R&D Systems, DY210), and C—C motif chemokine ligand 2 (CCL2; R&D Systems, DY279), which are inflammatory cytokines secreted into the medium, were quantified with a commercially available ELISKA kit, so as to evaluate an effect on monocyte differentiation, and the results thereof are shown in FIG. 12.

[8] = test system: Primary human hepatic stellate cells; test: Pro-collagen 1a1 expression in TGFβ1-activated primary human hepatic stellate cells; type: cell-based; details: FIG. 13, TGFβ1 5 ng/ml, 18 hours; for protein expression of pro-collagen 1a1 induced by TGFβ1: each drug treated alone
Protocol: Primary human hepatic stellate cells (ScienCell, #5300) were stabilized for 24 hours, then cultured in a serum-free medium for 24 hours, and then treated with compound 1 in combination with elafibranor as a PPAR agonist, firsocostat as an ACC inhibitor, or obeticholic acid as a FXR agonist together with 5 ng/ml of recombinant […] (TGFβ1), after which the resulting cells were harvested in 18 hours later and an amount of pro-collagen 1a1 in total cell proteins was quantified with a commercialized ELISKA Kit (R&D Systems, DY6220), while an amount of total cell proteins was quantified and corrected by a BCA method, and the results of calculating a concentration response curve of each drug and a concentration (IC30) showing 30% inhibitory activity are shown in FIG. 13.
When compound 1 was treated in combination with the PPAR agonist or the ACC inhibitor, the CI was calculated to be 0.7 and 0.6, which was smaller than 1, thus confirming a synergistic effect. And the CI was calculated to be 1 when treated in combination with the FXR agonist, thus confirming an additive effect.

[9] = FIG. 2, evogliptin 200 mg/kg/day, drug-diet admixture 8 to 12 weeks
[10] = FIG. 3, elafibranor 30 mg/kg/day
[11] = FIG. 6, evogliptin 200 mg/kg/day
[12] = FIG. 7, elafibranor 30 mg/kg/day
[13] = FIG. 8, evogliptin 200 mg/kg/day
[14] = FIG. 9, elafibranor 30 mg/kg/day
[15] = NASH mice, compound 1 alone 100 mg/kg/day
[16] = compound 1 100 mg/kg/day alone or combined with sitagliptin 150 mg/kg/day

SMILES	NAFLD activity score (NAS) [1, 9]	NAFLD activity score (NAS) [1, 10]	relative area of lipid droplets in liver tissues ([2]; FIG. 4)	ratio of fat (lipid droplets area) in liver tissues [2]	expression of galectin-3 in liver tissues [3, 11]	expression of galectin-3 in liver tissues [3, 12]	expression of αSMA in liver tissues [4, 13]	expression of αSMA in liver tissues [4, 14]	plasma concentration of ALT [6]	plasma concentration of AST [6]	protein expression of pro-collagen 1a1 induced by TGFβ1 [8]	also measured
CCc1cnc(N2CCC(CCCOc3cc(F)c(-c4noc(C(C)C)n4)c(F)c3)CC2)nc1 [compound 1, 3-(4-(3-(1-(5-ethylpyrimidin-2-yl)piperidin-4-yl)propoxy)-2,6-difluorophenyl)-5-isopropyl-1,2,4-oxadiazole]	significantly improved	significantly improved	significantly reduced	significantly reduced	significantly reduced	significantly decreased	significantly reduced	significantly reduced	significantly reduced	significantly reduced	inhibited in a concentration-dependent manner	size of lipid droplets in liver tissues ([2]; FIG. 4, compound 1 alone 100 mg/kg/day): decreased; plasma concentration of CCL2 [5, 15]: significantly decreased; plasma concentration of CXCl2 [5, 15]: significantly decreased; plasma concentration of CXCl10 [5, 15]: significantly decreased; plasma IL2 [5, 16]: tendency of decreasing; plasma TNFα [5, 16]: tendency of decreasing; plasma TIMP1 ([5]; compound 1 alone 100 mg/kg/day): significantly decreased; CCL2 secretion [7]: decreased in a concentration-dependent manner; IL-1β secretion [7]: decreased in a concentration-dependent manner; TNFα secretion [7]: decreased in a concentration-dependent manner; 30% inhibitory concentration (IC30), pro-collagen 1a1 ([8]; treated alone): 550 nM
CSc1ccc(C(=O)/C=C/c2cc(C)c(OC(C)(C)C(=O)O)c(C)c2)cc1 [elafibranor, reference compound]	–	significantly improved	–	significantly reduced	–	no effect of significantly decreasing	–	no effect of significantly reducing	–	–	relatively low response	–
CC(C)(C)OC[C@@H]1C(=O)NCCN1C(=O)C[C@H](N)Cc1cc(F)c(F)cc1F [evogliptin, reference compound]	insignificant	–	tendency of decreasing	–	significantly reduced	–	significantly reduced	–	significantly reduced	significantly reduced	–	–
COc1ccccc1[C@H](Cn1c(=O)n(C(C)(C)C(=O)O)c(=O)c2c(C)c(-c3ncco3)sc21)OC1CCOCC1 [firsocostat, reference compound]	–	–	–	–	–	–	–	–	–	–	relatively low response	–
